For three compounds, specific activity and Km results are on record in article PMC11502375, “Cytochrome P450 VvCYP76F14 dominates the production of wine bouquet precursors in wine grapes” (Frontiers in Plant Science, 2024).

Assay [1] has as its target T1, VvCYP76F14 ('Marselan', Aromatic type) (Vitis vinifera, UniProt A0A1B2ZBX8).
T1 construct: 499 residues; natural allele, versus Yanniang No.2: N46S/N111K/R175Q/L222V/M264I/S286N/L298V/K325T/E378G/T380A/E383D/T386A; MBP fusion in E. coli, MBP cut off with TEV protease; reductase partner Arabidopsis ATR1
Nature of the assay: substrate depletion by HPLC-HRMS. It is filed as biochemical. Conditions: 1 mM NADPH; ATR1 reductase; pH 5.0; 25 °C; 1 h.

For assay [2], the target named is VvCYP76F14 ('Yanniang No.2', Full-Bodied type) (Vitis vinifera, UniProt A0A1B2ZBX8). Conditions: 1 mM NADPH; ATR1 reductase (VvCYP76F14:ATR1 2:1); 100 mM Na+/K+ phosphate pH 5.0; 25 °C; 1 h.
VvCYP76F14 ('Yanniang No.2', Full-Bodied type) (Vitis vinifera, UniProt A0A1B2ZBX8), sequence (A0A1B2ZBX8 entry or part of it): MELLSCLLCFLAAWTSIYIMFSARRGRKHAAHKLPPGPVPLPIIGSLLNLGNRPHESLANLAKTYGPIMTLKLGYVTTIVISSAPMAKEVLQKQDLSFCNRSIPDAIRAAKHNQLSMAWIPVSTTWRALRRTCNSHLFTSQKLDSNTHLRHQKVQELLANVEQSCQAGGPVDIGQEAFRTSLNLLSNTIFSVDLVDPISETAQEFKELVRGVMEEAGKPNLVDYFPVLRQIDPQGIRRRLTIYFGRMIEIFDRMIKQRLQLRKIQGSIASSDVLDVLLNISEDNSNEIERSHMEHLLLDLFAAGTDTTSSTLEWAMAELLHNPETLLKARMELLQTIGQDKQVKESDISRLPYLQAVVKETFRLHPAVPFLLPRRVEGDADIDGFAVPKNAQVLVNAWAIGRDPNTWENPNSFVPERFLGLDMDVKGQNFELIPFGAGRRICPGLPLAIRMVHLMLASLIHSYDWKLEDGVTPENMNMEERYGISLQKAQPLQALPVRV
In assay [3] the target is VvCYP76F14 ('Yanniang No.2', Full-Bodied type) (Vitis vinifera, UniProt A0A1B2ZBX8, I173L, form not given). Conditions: 1 mM NADPH; ATR1 reductase (VvCYP76F14:ATR1 2:1); 100 mM Na+/K+ phosphate pH 5.0; 25 °C; 1 h.
VvCYP76F14 ('Yanniang No.2', Full-Bodied type) (Vitis vinifera, UniProt A0A1B2ZBX8, I173L, form not given), sequence (A0A1B2ZBX8 entry or part of it I173L, form open): as the sequence (A0A1B2ZBX8 entry or part of it) above, with I173L counted along it
The target in assay [4] is VvCYP76F14 ('Yanniang No.2', Full-Bodied type) (Vitis vinifera, UniProt A0A1B2ZBX8, L351V, form not given). To be noted: 1 mM NADPH; ATR1 reductase (VvCYP76F14:ATR1 2:1); 100 mM Na+/K+ phosphate pH 5.0; 25 °C; 1 h.
VvCYP76F14 ('Yanniang No.2', Full-Bodied type) (Vitis vinifera, UniProt A0A1B2ZBX8, L351V, form not given), sequence (A0A1B2ZBX8 entry or part of it L351V, form open): as the sequence (A0A1B2ZBX8 entry or part of it) above, with L351V counted along it
Assay [5] addresses VvCYP76F14 ('Yanniang No.2', Full-Bodied type) (Vitis vinifera, UniProt A0A1B2ZBX8, E431G, form not given). Conditions: 1 mM NADPH; ATR1 reductase (VvCYP76F14:ATR1 2:1); 100 mM Na+/K+ phosphate pH 5.0; 25 °C; 1 h.

Molecules are shown by their SMILES.

VvCYP76F14 ('Yanniang No.2', Full-Bodied type) (Vitis vinifera, UniProt A0A1B2ZBX8, E431G, form not given), sequence (A0A1B2ZBX8 entry or part of it E431G, form open): as the sequence (A0A1B2ZBX8 entry or part of it) above, with E431G counted along it
T1 sequence (A0A1B2ZBX8 entry or part of it): as the sequence (A0A1B2ZBX8 entry or part of it) above

For orientation: Km means the substrate concentration at which the rate is half of its maximum. For the compound `C=CC(C)(O)CC/C=C(\C)CO` (centres unmarked) [(E)-8-hydroxylinalool], the specific activity result in assay [1] is “(E)-8-hydroxylinalool (dehydrogenation), and (E)-8-oxolinalool (carboxylation) as substrates”. For the same compound, the Michaelis-Menten constant (Km) in assay [2] came out at 29.1 ± 2.66 µM; in assay [3] it was 76.7 ± 7.22 µM; in assay [4], 30.6 ± 2.85 µM; in assay [5] it was 65 ± 6.98 µM.

Regarding `C=CC(C)(O)CC/C=C(\C)C=O` (centres unmarked) [(E)-8-oxolinalool], the Km in assay [2] stood at 41.4 ± 3.93 µM; in assay [3], 90.8 ± 12.2 µM; in assay [4], 41.9 ± 5.24 µM; in assay [5], 88.5 ± 9.85 µM.

Turning to `C=CC(C)(O)CCC=C(C)C` (centres unmarked) [linalool], the specific activity entry in assay [1] is given as “All three VvCYP76F14s demonstrated catalytic activity in reactions utilizing linalool (hydroxylation)”. For the same compound, the Michaelis-Menten constant (Km) was determined as 66.2 ± 5.63 µM in assay [2], 151 ± 14.6 µM in assay [3], 67.6 ± 6.94 µM in assay [4] and 144 ± 15.6 µM in assay [5].
